Data on 1 substance can be found in patent publication US20120070401A1, “Composition and Method for Promoting Wound Healing” (priority 2010, published 2012).

In the assay the test system is corneal reepithelialization. Briefly: rabbit corneal wound healing model (corneal reepithelialization after 9.5-mm epithelial wound, fluorescein-stained wound area). The assay is classed as in vivo, New Zealand White rabbits. The following applies: n=10 per group.

Excerpt: Animals. One hundred and ten pathogen-free New Zealand White rabbits were obtained from a commercial laboratory. Animals were at least 18 weeks old and 2-3 kg body weight at the time of treatment.
Pre-Treatment Examinations. Prior to placement on study, each animal underwent a pre-treatment ophthalmic examination (slit lamp with fluorescein staining). […] Animals were then randomly assigned to eleven treatment groups (10 animals per group) according to a modified Latin square design. Animals were fasted at least 12 hours prior to corneal wound surgery.
Wounding Procedure. […]
Corneal Wound Evaluation. The corneal wound condition was evaluated immediately post wounding and at 12, 24, 36, 48, 60, and 72 hours. […] From the photographs, the perimeter of the wounds was determined using a Mechanical Polar Planimeter (LASISCO; Los Angeles, Calif.).
Numerical results were expressed as mean±SEM, n=10, unless indicated otherwise. Data were analyzed by a two-way ANOVA with repeated measures followed by the Tukey-Kramer test. In addition, overall effects were evaluated by analyzing integrated responses calculated as the areas under the curve (AUC) for each treatment over the time course. […] Integrated responses were analyzed by a one-way ANOVA followed by the Tukey-Kramer test. […]

As for benzalkonium chloride [BAK], the “integrated wound area (AUC over the time course) compared to the saline control” value (0 to 72 hours, trapezoidal rule) is recorded as “no significant effects”. Also, the “effect on corneal reepithelialization time-course (wound area) compared to the saline control” value (topical, 14 instillations over 72 hours, time points 12-72 hours) is “No significant effects”.
